Experimental findings from patent US12157730B2, “Heteroaryl derivative, method for producing same, and pharmaceutical composition comprising same as effective component” (VORONOI INC., priority 2019, dated 2024) are described below.

Structures are written as SMILES.

Assay [1] concerns the target T1, Ba/F3 cell HER2 Exon20 ins YVMA (Homo sapiens, UniProt P04626, INS775YVMA).
T1 construct: expressed in transfected cells; host or cells: Ba/F3
Description: Ba/F3 cell proliferation suppression, HER2 Exon20 ins YVMA. Format: cell-based. Conditions: 72 hours after treatment, CellTiter-Glo. The gist of the method: (§1)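 After 72 h compound exposure (twelve 3-fold steps, 0.3 nM–50 um final), live cells were measured by CellTiter-Glo luminescence and growth expressed as % of control to derive GI50. Cells were seeded at 3000–5000 per well a day earlier; Ba/F3 medium contained IL-3; three repeats.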
A general note: ATP-based viability assays read luminescence as a measure of living cells.

The test system of a further assay is H1975. The experiment in a line: Lung cancer cell proliferation suppression, H1975. Format: cell-based. The settings on record: Homo sapiens, NCI-H1975; 72 hours after treatment, CellTiter-Glo. Here is the method: (§2) The following experiment was carried out to evaluate the suppression activity of the compounds according to the present invention against proliferation of Ba/F3 and lung cancer cells which express EGFR mutations.
(§3) Of the cancer cell lines expressing the EGFR gene, A549 was cultured after adding 10% FBS (HyClone) to DMEM (Invitrogen), and RPMI-1640 (Invitrogen) with 10% FBS was used for the other cancer cells. For the Ba/F3 cells, RPMI-1640 with 10% FBS and 5 ng/ml IL-3 (R&D Systems) was used. The transduced Ba/F3 cells were cultured by adding 1 ug/ml puromycin (Invitrogen) to the same medium.
(§4) 24 hours before treatment with the compounds, 3000 to 5000 cells were distributed into each well of a white clear bottom 96 well plate (Corning). The compounds were diluted in dimethylsulfoxide (dilution ratio 3:1; 12 concentrations total) and injected 0.5 ul each for a final concentration of 0.3 nM to 50 um. As for measurement of live cells, 72 hours after treatment with the compounds, a CellTiter-Glo luminescent cell-viability reagent (Promega) was used to store the cells at room temperature for 10 minutes, followed by measurement of luminescence using a reader (SynergyNeo, Biotek). Each test was repeated three times.
(§5) The result was calculated as a cell growth ratio (%) compared to a control. The program GraphPad Prism version 5.0 was used to draw the graphs and calculate the GI50 values.

The test system of assay [2] is Ba/F3 cell EGFR Del19/T790M. The experiment in a line: Ba/F3 cell proliferation suppression, EGFR Del19/T790M. Format: cell-based. Conditions: 72 hours after treatment, CellTiter-Glo. The gist of the method: as §1
The subject of the next assay is PC9. Description: Lung cancer cell proliferation suppression, PC9. Conditions: Homo sapiens, PC-9; 72 hours after treatment, CellTiter-Glo. Format: cell-based. Here is the method:
as §2, §3, §4, §5

Assay [3] deals with T2, Ba/F3 cell EGFR L858R/T790M (Homo sapiens, UniProt P00533, L858R/T790M).
T2 construct: expressed in transfected cells; host or cells: Ba/F3
Description: Ba/F3 cell proliferation suppression, EGFR L858R/T790M. Conditions: 72 hours after treatment, CellTiter-Glo. Format: cell-based. The gist of the method:
as §1

Assay [4] deals with T3, Ba/F3 cell EGFR Exon20 ins FQEA (Homo sapiens, UniProt P00533, INS763FQEA).
T3 construct: expressed in transfected cells; host or cells: Ba/F3
Description: Ba/F3 cell proliferation suppression, EGFR Exon20 ins FQEA. Format: cell-based. The settings on record: 72 hours after treatment, CellTiter-Glo. Here is the method: as §2, §3, §4, §5

The target of a further assay is T4, Ba/F3 cell EGFR L858R (Homo sapiens, UniProt P00533, L858R).
T4 construct: expressed in transfected cells; host or cells: Ba/F3
The experiment in a line: Ba/F3 cell proliferation suppression, EGFR L858R. Conditions: 72 hours after treatment, CellTiter-Glo. Format: cell-based. The gist of the method: as §1

The target of assay [5] is T5, Ba/F3 cell EGFR Exon20 ins NPH (Homo sapiens, UniProt P00533, INS773NPH).
T5 construct: expressed in transfected cells; host or cells: Ba/F3
Description: Ba/F3 cell proliferation suppression, EGFR Exon20 ins NPH. Format: cell-based. The settings on record: for GI50: 72 hours after treatment, CellTiter-Glo; for Ba/F3 (NPH) Activity: GI50 class, Ba/F3 cell line with NPH inserted at Exon20 of EGFR, 72 hours. The gist of the method:
as §1

The target in assay [6] is T6, Ba/F3 cell EGFR Exon20 ins ASV (Homo sapiens, UniProt P00533, INS769ASV).
T6 construct: expressed in transfected cells; host or cells: Ba/F3
Description: Ba/F3 cell proliferation suppression, EGFR Exon20 ins ASV. Format: cell-based. The settings on record: 72 hours after treatment, CellTiter-Glo. The gist of the method: as §1

A short description of assay [7]: Cancer cell proliferation suppression, A549. Format: cell-based. The settings on record: A459; 72 hours after treatment, CellTiter-Glo. Here is the method:
as §2, §3, §4, §5

The target of assay [8] is T7, Ba/F3 cell EGFR Exon20 ins SVD (Homo sapiens, UniProt P00533, INS770SVD).
T7 construct: expressed in transfected cells; host or cells: Ba/F3
Description: Ba/F3 cell proliferation suppression, EGFR Exon20 ins SVD. Format: cell-based. The settings on record: 72 hours after treatment, CellTiter-Glo. The gist of the method:
as §1

The next assay deals with Ba/F3 cell naive. Description: Ba/F3 cell proliferation suppression, naive. Format: cell-based. Conditions: Mus musculus, BaF3; 72 hours after treatment, CellTiter-Glo. The gist of the method: as §1
For the next assay, the system named is PC9GR. The experiment in a line: Lung cancer cell proliferation suppression, PC9GR. Format: cell-based. The settings on record: 72 hours after treatment, CellTiter-Glo. Here is the method: as §2, §3, §4, §5
Assay [9] relates to Ba/F3 cell EGFR Exon20 ins H. Description: Ba/F3 cell proliferation suppression, EGFR Exon20 ins H. Format: cell-based. Conditions: 72 hours after treatment, CellTiter-Glo. Here is the method:
as §2, §3, §4, §5

The subject of assay [10] is scanMAX kinase panel (EGFR mutant, ERBB2, ERBB4). The experiment in a line: DiscoverX (eurofin) KINOMEscan (scanMAX platform) kinase profiling. Format: binding. The source says: It was confirmed that the above example compounds had high selectivity against EGFR series genes. Accordingly, these can be useful in the treating of cancers wherein this kinase is expressed. In particular, as they have substantially outstanding lung cancer cell line proliferation suppression, they can be useful in the treatment of lung cancer, breast cancer, and brain cancer.

T1 sequence (P04626 with tags, fused parts or gaps INS775YVMA): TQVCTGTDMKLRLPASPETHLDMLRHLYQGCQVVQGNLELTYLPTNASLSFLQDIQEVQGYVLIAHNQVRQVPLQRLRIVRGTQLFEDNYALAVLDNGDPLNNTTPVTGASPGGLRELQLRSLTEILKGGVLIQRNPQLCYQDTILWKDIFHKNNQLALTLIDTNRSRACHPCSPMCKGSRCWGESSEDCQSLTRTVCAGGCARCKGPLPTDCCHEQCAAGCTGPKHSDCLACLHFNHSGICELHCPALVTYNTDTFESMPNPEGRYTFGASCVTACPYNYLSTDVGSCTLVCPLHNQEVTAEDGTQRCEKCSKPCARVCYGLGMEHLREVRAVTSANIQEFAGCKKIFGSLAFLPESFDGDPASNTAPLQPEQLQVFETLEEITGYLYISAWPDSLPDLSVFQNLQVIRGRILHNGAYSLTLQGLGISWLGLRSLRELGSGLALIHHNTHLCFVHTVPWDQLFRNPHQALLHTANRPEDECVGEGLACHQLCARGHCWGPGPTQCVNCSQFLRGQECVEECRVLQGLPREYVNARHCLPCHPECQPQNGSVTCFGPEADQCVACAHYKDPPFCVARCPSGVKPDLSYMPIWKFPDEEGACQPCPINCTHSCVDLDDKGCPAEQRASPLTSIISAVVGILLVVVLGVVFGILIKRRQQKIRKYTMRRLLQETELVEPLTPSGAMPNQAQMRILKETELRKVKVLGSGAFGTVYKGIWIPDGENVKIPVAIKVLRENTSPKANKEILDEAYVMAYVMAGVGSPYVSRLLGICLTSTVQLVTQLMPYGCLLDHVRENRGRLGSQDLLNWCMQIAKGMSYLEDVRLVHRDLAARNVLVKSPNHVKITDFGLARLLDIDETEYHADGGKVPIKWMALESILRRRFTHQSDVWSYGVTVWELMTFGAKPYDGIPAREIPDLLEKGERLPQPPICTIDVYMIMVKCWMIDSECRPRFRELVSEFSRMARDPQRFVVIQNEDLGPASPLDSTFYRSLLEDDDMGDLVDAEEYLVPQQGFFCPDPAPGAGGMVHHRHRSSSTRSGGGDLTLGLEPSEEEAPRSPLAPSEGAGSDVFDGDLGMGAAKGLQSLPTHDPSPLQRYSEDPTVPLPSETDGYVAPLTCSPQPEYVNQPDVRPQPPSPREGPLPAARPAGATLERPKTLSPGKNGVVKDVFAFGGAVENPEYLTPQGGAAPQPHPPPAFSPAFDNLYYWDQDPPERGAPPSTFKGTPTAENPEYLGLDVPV

Turning to `C=CC(=O)Nc1cc(Nc2cc(N3OCC[C@@H]3c3ccccc3)ncn2)c(OC)cc1N1CCN(C2CCN(C)CC2)CC1` [Example 10], the concentration for 50% growth inhibition (GI50) (commonly the concentration at which growth is held to half of that of the control) was under 0.05 µM in assay [1]; 13 nM in the assay on H1975; under 0.05 µM in assay [2]; 14 nM in the assay on PC9; under 0.05 µM in assay [3]; under 0.05 µM in assay [4]. For the same molecule, the GI50 is under 0.05 µM at Ba/F3 cell EGFR L858R; under 0.05 µM in [5]; under 0.05 µM in [6]; over 15000 nM in assay [7]; under 0.05 µM in assay [8]; at least 5 µM with Ba/F3 cell naive. The GI50 in the assay on PC9GR was 10 nM; in assay [9], under 0.05 µM. For the same molecule, the “Ba/F3 (NPH) Activity” value in [5] is given as “A (GI50 < 50 nM)”.
In the case of `C=CC(=O)Nc1cc(Nc2cc(N3OCC[C@@H]3c3ccccc3)ncn2)ccc1N(C)CCN(C)C` [Example 28], the concentration for 50% growth inhibition (GI50) (in assay [1]; in assay [2]; in [3]; in assay [4]; at Ba/F3 cell EGFR L858R; in assay [5]) was under 0.05 µM in each case. Besides, the GI50 is under 0.05 µM in assay [6], under 0.05 µM in assay [8], 0.5 to 5 µM in the assay on Ba/F3 cell naive and under 0.05 µM in assay [9]. The “Ba/F3 (NPH) Activity” value in assay [5] was “A (GI50 < 50 nM)”.
As to `C=CC(=O)Nc1cc(Nc2cc(N3OCC[C@@H]3c3ccccc3)ncn2)ccc1N1CCN(C)CC1` [Example 29, N-(2-(4-methylpiperazine-1-yl)-5-((6-((R)-3-phenylisoxazolidine-2-yl)pyrimidine-4-yl)amino)phenyl) acrylamide], the GI50 (in assay [1]; in [2]; in [3]; in assay [4]; at Ba/F3 cell EGFR L858R; in assay [5]) was under 0.05 µM each time. Also, the GI50 in [6] is under 0.05 µM; in assay [8] it was under 0.05 µM; in the assay with Ba/F3 cell naive, at least 5 µM; in [9], under 0.05 µM. The “Ba/F3 (NPH) Activity” value in assay [5] was “A (GI50 < 50 nM)”.
In the case of `C=CC(=O)Nc1cc(Nc2cc(N3OCC[C@@H]3c3ccccc3)ncn2)c(OC)cc1N1CCN(CC)CC1` [Example 15, N-(2-(4-ethylpiperazine-1-yl)-4-methoxy-5-((6-((R)-phenylisoxazolidine-2-yl)pyrimidine-4-yl)amino)phenyl) acrylamide], the GI50 in [1] is under 0.05 µM; with H1975 it was 13 nM; in assay [2], under 0.05 µM; with PC9, 7 nM; in assay [3], under 0.05 µM; in assay [4] it was under 0.05 µM. Besides, the GI50 on Ba/F3 cell EGFR L858R was under 0.05 µM; in assay [5] it was under 0.05 µM; in [6], under 0.05 µM; in assay [7], over 15000 nM; in assay [8] it was under 0.05 µM; in the assay on Ba/F3 cell naive it was at least 5 µM. Further, the GI50 is 6 nM with PC9GR and under 0.05 µM in assay [9]. Also, the “Ba/F3 (NPH) Activity” value in assay [5] is reported as “A (GI50 < 50 nM)”.
For the molecule `C=CC(=O)Nc1cc(Nc2cc(N3OCC[C@@H]3c3ccccc3)ncn2)c(OC)cc1N1CCC(N(C)C)CC1` [Example 12, N-(2-(4-(dimethylamino)piperidine-1-yl)-4-methoxy-5-((6-((R)-3-phenylisoxazolidine-2-yl)pyrimidine-4-yl)amino)phenyl) acrylamide], the GI50 in assay [1] was under 0.05 µM; in the assay with H1975 it was 8 nM; in [2], under 0.05 µM; in the assay on PC9, 12 nM; in assay [3], under 0.05 µM; in assay [4], under 0.05 µM. The 50% growth inhibitory concentration (GI50) at Ba/F3 cell EGFR L858R was under 0.05 µM; in assay [5], under 0.05 µM; in assay [6] it was under 0.05 µM; in assay [7], over 15000 nM; in assay [8], under 0.05 µM; with Ba/F3 cell naive it was at least 5 µM. In addition, the GI50 is 5 nM with PC9GR and under 0.05 µM in assay [9]. For the same molecule, the “Ba/F3 (NPH) Activity” value in assay [5] is “A (GI50 < 50 nM)”.
Take `C=CC(=O)Nc1cc(Nc2cc(N3OCC[C@@H]3c3ccccc3)ncn2)c(OC)cc1N1CCN(C)CC1` [Example 6, N-(4-methoxy-2-(4-methylpiperazine-1-yl)-5-((6-((R)-3-phenylisoxazolidine-2-yl)pyrimidine-4-yl)amino)phenyl) acrylamide]: the 50% growth inhibitory concentration (GI50) is under 0.05 µM in assay [1]; 60 nM in the assay with H1975; under 0.05 µM in assay [2]; 1 nM with PC9; under 0.05 µM in [3]; under 0.05 µM in [4]. Moreover, the GI50 was under 0.05 µM at Ba/F3 cell EGFR L858R; under 0.05 µM in assay [5]; under 0.05 µM in assay [6]; over 15000 nM in assay [7]; under 0.05 µM in assay [8]; at least 5 µM with Ba/F3 cell naive. Further, the GI50 is 32 nM with PC9GR and under 0.05 µM in assay [9]. In assay [5], the “Ba/F3 (NPH) Activity” value is on record as “A (GI50 < 50 nM)”. Besides, the “% inhibition of scanMAX Kinase profiling” value in assay [10] (EGFR(E746-A750del)) is recorded as 100%; in assay [10] (EGFR(G719C)), 100%; in [10] (EGFR(G719S)) it was 100%; in assay [10] (EGFR(L747-E749del, A750P)), 100%; in assay [10] (EGFR(L747-T751del.Sins)), 100%; in assay [10] (EGFR(L858R)) it was 100%. Also, the “% inhibition of scanMAX Kinase profiling” value stood at 85% in assay [10] (EGFR(L858R.T790M)); 100% in assay [10] (EGFR(L861q)); 96% in assay [10] (EGFR(S752-I759del)); 100% in assay [10] (EGFR(T790M)); 100% in [10] (ERBB2); 100% in [10] (ERBB4). In assay [10] (KINOMEscan scanMAX kinase profiling), the “suppression activity against the EGFR mutant and ERBB2 and ERBB4” value is listed as “high suppression activity”.
As for `C=CC(=O)Nc1cc(Nc2cc(N3OCC[C@@H]3c3ccccc3)ncn2)c(OC)cc1N1CC[C@@H](N(C)C)C1` [Example 13], the GI50 in assay [1] was under 0.05 µM; in the assay on H1975 it was 63 nM; in [2], under 0.05 µM; in the assay with PC9, 12 nM; in assay [3], under 0.05 µM; in assay [4], under 0.05 µM. In addition, the GI50 at Ba/F3 cell EGFR L858R was under 0.05 µM; in assay [5] it was under 0.05 µM; in assay [6], under 0.05 µM; in assay [7] it was over 15000 nM; in assay [8], under 0.05 µM; in the assay with Ba/F3 cell naive, at least 5 µM. For the same molecule, the concentration for 50% growth inhibition (GI50) was 64 nM in the assay with PC9GR and under 0.05 µM in assay [9]. In addition, the “Ba/F3 (NPH) Activity” value in [5] is given as “A (GI50 < 50 nM)”.
